Each structure is given as a SMILES string.

A word on the melting point: it is the temperature, or range, at which the solid turns liquid. Turning to `Cc1ccc(S(=O)(=O)Nc2nc(-c3cccc(-c4ccccc4)c3)cs2)cc1`, the melting point was in the range of 153 to 155 °C.
Under `CCCn1nc2c(N)nc3c(c2c1CC(C)C)CCCC3` stands 167 to 168 °C.
The compound `Cc1cc(C)cc(S(=O)(=O)c2ccc(N)cc2)c1` registered a melting point of 178 to 179 °C.
The figure for `OC1CCc2c(Cl)cc(Cl)cc2C1` (stereo not drawn) is 84 to 86 °C; for `CCCCCCCCCCCCCCC(=O)Nc1ccn(C2OC(CO)C(O)C2O)c(=O)n1` (stereo not drawn) it is 142 to 145 °C.
In turn, `CC(C)(CCl)c1cc(Cl)nnc1Cl` gave a melting point of 66.5 to 68.5 °C.
The figure for `CON(C)C(=O)CC(c1cccc(Br)c1)c1ccccc1C` (stereo not drawn) is 89 °C; for `Cc1cc(F)ccc1C(=C(C=O)c1nnnn1C)c1ccc(F)cc1C` it is 135 to 136 °C; for `CCOC(=O)CNc1ccc2ccccc2c1` it is 83 to 84 °C.
Under `O=S1CCN(c2nc(N3CCNCC3)cc3c(Cl)cccc23)CC1` stands 215 to 217 °C; under `Nc1ccccc1Sc1cccc2c1C(=O)c1cccc(Sc3ccccc3N)c1C2=O`, 283 to 284 °C; under `C#CCNC(=O)c1cccc(F)c1Nc1nc(Nc2ccc3c(c2)N(C(C)=O)CCCC3)ncc1Cl`, 210 to 214 °C.
In turn, `Nc1c(Cl)cc(Cl)n2nc(SCc3ccccc3)nc12` registered a melting point of 118 to 119 °C.
As for `CC(CC1(c2ccc(Cl)cc2)CCC1)NC=O` (stereo not drawn), the melting point is 71 to 73 °C.
Take `O=c1c(N2CCNCC2)nc2ccc(F)cc2n1-c1ccccc1`: the melting point was 142 to 143 °C.
Under `FC(F)(F)c1ccc(-c2ncc(-c3cccs3)s2)cc1` stands 154 to 155 °C.
Under `O=S(=O)(Nc1ccc2c(OCC3(c4cccc(C(F)(F)F)c4)N=CNO3)cccc2c1)C(F)(F)F` (stereo not drawn) stands 107 to 108 °C; under `O=S(=O)(Cl)Cc1csc(-c2ccc(Cl)c(Cl)c2)n1`, 124 to 127 °C; under `CCOc1c(OC)cc(C)c(C(=O)c2c(OC)ccc(Cl)c2C)c1OC`, 131 to 132 °C.
`O=c1ccc(Cc2cccnc2)c[nH]1` came in with a melting point of 142 to 144 °C.
Compound `CCOC(=O)C1=C(COCC(C)(O)Cc2ccccn2)NC(C)=C(C(=O)OC)C1c1cccc(Cl)c1Cl` (stereo not drawn) yielded a melting point of 163 to 164 °C.
Under `CCOC(=O)C(=CNc1ccn(Cc2ccccc2)n1)C(=O)OCC` stands 57 to 59 °C; under `O=C(CNN1C(=O)c2ccccc2S1(=O)=O)N[C@@H](Cc1ccccc1)C(=O)O`, 201 to 204 °C; under `CCCn1c(=O)c2[nH]c(C(CO)Cc3ccccc3)nc2n(CCC)c1=O` (stereo not drawn), 145 to 146 °C.
`CCN1CCCC1CNC(=O)c1ccc(Nc2ncnc3cc(C(F)(F)F)ccc23)cc1` (stereo not drawn) yielded a melting point of 150 to 152 °C.
`CCOC(=O)CCn1c(=O)n2cc(C)cc2c2ccccc21` returned a melting point of 74 to 76 °C.
Regarding `COc1ccccc1-c1ccc2cnc(Nc3ccc(OCCN4CCOCC4)cc3)nn12`, the melting point was in the range of 133 to 135 °C.
Compound `CCC(=O)Nc1cc(-c2sc(C(C)=O)nc2-c2cccc(C)c2)ccn1` registered a melting point of 121 to 123 °C.
The figure for `Cc1cccc(N=C(N)N(C)C)c1N1CCOCC1` is 100 °C; for `CS(=O)(=O)c1ccc(-c2nn(CCc3ccccc3)cc2-c2ccc(F)cc2)cc1` it is 170 to 171 °C; for `COC(=O)c1ccc2c(nc(C)n2Cc2ccccc2)c1C1=NC(C)(C(C)C)C(=O)N1` (stereo not drawn) it is 194 to 196 °C.
The figure for `CC1(C)OC(=O)C(Oc2ccccc2)=C1c1ccc(S(C)(=O)=O)cc1` is 135 to 136 °C; for `CC(C)(C)OC(=O)NNC(=O)N1CCC(Br)C1=O` (stereo not drawn) it is 122 to 123 °C.
As to `CCOC(=O)c1ccc(N=CN(C)c2ccc(C(=O)OCC)cc2)cc1`, the melting point fell in the range of 89 to 91 °C.
Consider `O=C(NCc1ccc(Cl)cc1)c1cc2c(O)c(C(=O)NCc3ccc(Cl)cc3)cnc2o1`, for which the melting point lay in the range of 230 to 245 °C.
Under `Oc1ccc(C=C2c3cc(O)c(O)cc3-c3ccc(O)c(O)c32)cc1` stands 228 to 230 °C.
Under `COc1ccc(C2CCc3cc(OC)ccc3C2CCO)cc1` (stereo not drawn) stands 95 °C.
Compound `CS(=O)(=O)c1ccccc1[N+](=O)[O-]` came in with a melting point of 102 to 104 °C.
In turn, `COc1ccc(/C=C/c2ccncc2)cc1OCCCCCc1ccccc1` returned a melting point of 98 to 100 °C.
In the case of `CC(C(=O)O)c1ccc(OCCNC(=O)C2Cc3ccccc3N2S(=O)(=O)c2ccc(-c3cccc(C(F)(F)F)c3)cc2)cc1` (stereo not drawn), the melting point lay in the range of 92 to 96 °C.
As to `CC(C)(C)OC(=O)Oc1ccc(C(C(=O)OC(c2ccccc2)c2ccccc2)N2CC(NC(=O)OCc3ccccc3)C2=O)cc1` (stereo not drawn), the melting point is 153 to 154 °C.
Under `CCCCc1nc2c(N)nc(C)c(C)c2n1CC(C)(C)NS(C)(=O)=O` stands 90 to 92 °C.
Under `CNC(=O)c1ccc(-c2coc3ccc(-c4nnc(C)o4)cc23)cc1F` stands 183 to 184 °C; under `OC(COCc1ccccc1)C(O)COCc1ccccc1` (single isomer, unassigned; (+)), 44 to 45 °C.
The figure for `O=C(O)c1ccccc1S(=O)c1cc(Cl)ccc1C(=O)O` (stereo not drawn) is 279 to 281 °C; for `CCCNC(=O)c1nc(C)ccc1C(=O)Nc1cccc2ccccc12` it is 175 to 178 °C.
With `CCC(C)c1ccccc1Sc1c(O)cc(-c2ccccc2)oc1=O` (stereo not drawn), the melting point lay in the range of 170 to 171 °C.
The figure for `Cc1ccc(S(=O)(=O)N(CCN=[N+]=[N-])CCN=[N+]=[N-])cc1` is 47 to 48 °C; for `Cc1ccc(S(=O)(=O)NCCCCOc2ccc(-n3cnnn3)cc2)cc1` it is 127 to 128 °C.
Under `Cc1ccccc1[PH](=O)c1ccccc1C` stands 91.3 °C.
For the compound `O=C(CCC(=O)N1CCCCC1c1ccccc1)c1ccc2c(c1)CCNCC2` (stereo not drawn), the melting point was determined as 114 °C.
`CCCCCCC[C@H]1O[C@H]1C(=O)O`: the melting point is 53 to 55 °C.
In turn, `O=C(/C=C/c1cccc(S(=O)(=O)N2CCN(C/C=C/c3ccccc3)CC2)c1)NO` came in with a melting point of 178 °C.
The figure for `CC(C)(C)c1ccccc1N1CCC(N)=N1` is 114 °C; for `Nc1c(F)c(N2C[C@@H](N)[C@@H](n3ccnn3)C2)c(F)c2c1c(=O)c(C(=O)O)cn2-c1ccc(F)cc1F` (relative stereo) it is 279 to 281 °C.
`CC(=O)Nc1ccc(F)cc1OCCOc1ccc([N+](=O)[O-])cc1F` came in with a melting point of 192 to 194 °C.
The figure for `O=C(NC1CCN(CCCOc2ccccc2C(=O)Nc2nnn[nH]2)CC1)c1ccccc1` is 259 to 260 °C; for `O=C(N[C@H]1CCCNC1=O)c1cccc(F)c1` it is 164 to 166 °C; for `O=c1c(-c2ccccc2O)coc2cc(O)c(Cl)cc12` it is more than 250 °C.
`OC1CSC(Oc2cc(-c3ccncc3)cc(F)c2F)C(O)C1O` (stereo not drawn): the melting point stood at 151 °C.
The compound `Clc1ccc(C#Cc2ccc(-c3ccccc3)s2)cc1` came in with a melting point of 141 to 145 °C.
Turning to `Cc1[nH]cnc1/C=C/C(=O)c1coc2ccccc12`, the melting point lay in the range of 192 to 193 °C.
The compound `Cc1ccc(NC(=O)c2cccc(N(C)C)c2)cc1NC(=O)c1cccc(N(C)S(C)(=O)=O)c1` showed a melting point of 168 to 169 °C.

Source of the values: a melting point compilation (Tetko et al.; mined from patent text by program, amines drawn as free bases though some values may be those of a salt).
